“Also recorded” adds a separate entry of the source. Read-outs that look alike come from different tables or passages of the source.
Key:
Assay type in all cases: physicochemical
[1] = Variable humidity XRPD (VH-XRPD); conditions: ~95% RH, 24 hr
Protocol: Samples run under non-ambient conditions were prepared by gently packing into a cavity, cut into a silicon wafer to obtain a flat surface and mounted onto a humidity stage with an Ansyco controller and humidity sensor positioned directly next to the sample holder. The data were collected at 298.15 K with water temperature of 35.0° C., in an angular range of 3 to 31° 2θ, with a step size of 0.025° 2θ, a collection time of 2.0 sec/step, and a collection time at each % RH was 41 min 28 sec. X-Ray Powder Diffraction (XRPD) patterns were collected at variable humidity values from 0 to 95% RH, based upon the humidity behavior of each compound observed during GVS experiments (described herein). For each Variable Humidity X-Ray Powder Diffraction (VH-XRPD) experiment performed, the % RH values selected are provided alongside the relevant experimental result. Full tables of detailing the % RH value at each collection point and the associated delay time at each value are provided in Tables 10-12. To fully characterize the polymorphic behavior of Samples 1 and 2 at variable humidity, and to collect reference XRPD patterns for the ‘pure’ anhydrous Form 1 and Form 2 material, and ‘pure’ hydrated Form 3 material, Variable Humidity (VH) XRPD experiments were conducted on Samples 1 and 2. Initially, VH-XRPD experiments were conducted using Sample 1, and XRPD diffractograms were collected at selected humidity values, in line with those collected during GVS experiments (see FIGS. 6E-6F). XRPD diffractograms were collected initially at ambient RH, then collected over 24 hours at ˜95% RH and finally collected during desorption steps to 0% RH and over 10 hours at 0% RH (see FIG. 4C). […]

[2] = Solubility assessment of Sample 1 (majorly Form 1) in 24 solvent systems
[3] = as above; conditions: organic solvent or mixture
Protocol: Solubility assessment was carried out on the Sample 1 of RAD1901-2HCl (majorly Form 1 shown by XRPD) in 24 solvent systems in HPLC vials (sample IDs: A1 to A24). RAD1901-2HCl (25 mg) was treated with increasing volumes of solvent until the material fully dissolved or until a maximum of 60 vol had been used (Table 13).
After each addition of solvent, the system was stirred for 5 to 10 minutes at 25° C., then shaken at 50° C. for 5 to 10 minutes, and observations made. Samples were allowed to stand at room temperature for 5 min before the addition of a new aliquot of solvent. After the assessment was completed, the suspensions obtained were matured (maturation) and the clear solutions were cooled (cooling) and slowly evaporated (evaporation) as described below. All solids recovered from maturation, cooling and evaporation experiments were analyzed by high resolution XRPD.

CCNCCc1ccc(CN(CC)c2cc(OC)ccc2[C@@H]2CCc3cc(O)ccc3C2)cc1.Cl.Cl [Sample 1]
VH-XRPD at ~95% RH over 24 hr [1]: slow conversion towards the hydrated state; also recorded: Form 3 over 24
Solubility in alcohols, esters, and hydrocarbon solvents ([2]; alcohols, esters, hydrocarbon solvents): low solubility
Solubility in t-butanol/water (1:1) ([2]; t-butanol/water (1:1)): high solubility
solubility ([3]; 1,2-dimethoxyethane, 50 °C, thermodynamic from solid, 1,2-dimethoxyethane, sample ID A16, read-out: Solubility assessment 10 vol.): < 100 mg/mL
solubility ([3]; 1,2-dimethoxyethane, 50 °C, thermodynamic from solid, 1,2-dimethoxyethane, sample ID A16, read-out: Solubility assessment 20 vol.): < 50 mg/mL
solubility ([3]; 1,2-dimethoxyethane, 50 °C, thermodynamic from solid, 1,2-dimethoxyethane, sample ID A16, read-out: Solubility assessment 40 vol.): < 25 mg/mL
solubility ([3]; 1,2-dimethoxyethane, 50 °C, thermodynamic from solid, 1,2-dimethoxyethane, sample ID A16, read-out: Solubility assessment 60 vol.): < 16.7 mg/mL
solubility ([3]; 1,4-dioxane, 50 °C, thermodynamic from solid, 1,4-Dioxane, sample ID A14, read-out: Solubility assessment 10 vol.): < 100 mg/mL
solubility ([3]; 1,4-dioxane, 50 °C, thermodynamic from solid, 1,4-Dioxane, sample ID A14, read-out: Solubility assessment 20 vol.): < 50 mg/mL
solubility ([3]; 1,4-dioxane, 50 °C, thermodynamic from solid, 1,4-Dioxane, sample ID A14, read-out: Solubility assessment 40 vol.): < 25 mg/mL
solubility ([3]; 1,4-dioxane, 50 °C, thermodynamic from solid, 1,4-Dioxane, sample ID A14, read-out: Solubility assessment 60 vol.): < 16.7 mg/mL
solubility ([3]; 1-propanol, 50 °C, thermodynamic from solid, 1-propanol, sample ID A8, read-out: Solubility assessment 10 vol.): < 100 mg/mL
solubility ([3]; 1-propanol, 50 °C, thermodynamic from solid, 1-propanol, sample ID A8, read-out: Solubility assessment 20 vol.): < 50 mg/mL
solubility ([3]; 1-propanol, 50 °C, thermodynamic from solid, 1-propanol, sample ID A8, read-out: Solubility assessment 40 vol.): < 25 mg/mL
solubility ([3]; 1-propanol, 50 °C, thermodynamic from solid, 1-propanol, sample ID A8, read-out: Solubility assessment 60 vol.): < 16.7 mg/mL
solubility ([3]; 2-propanol, 50 °C, thermodynamic from solid, 2-propanol, sample ID A6, read-out: Solubility assessment 10 vol.): < 100 mg/mL
solubility ([3]; 2-propanol, 50 °C, thermodynamic from solid, 2-propanol, sample ID A6, read-out: Solubility assessment 20 vol.): < 50 mg/mL
solubility ([3]; 2-propanol, 50 °C, thermodynamic from solid, 2-propanol, sample ID A6, read-out: Solubility assessment 40 vol.): < 25 mg/mL
solubility ([3]; 2-propanol, 50 °C, thermodynamic from solid, 2-propanol, sample ID A6, read-out: Solubility assessment 60 vol.): < 16.7 mg/mL
solubility ([3]; 10% water/EtOH, 50 °C, thermodynamic from solid, 10% water/EtOH, sample ID A22, read-out: Solubility assessment 10 vol.): 50 to 100 mg/mL
solubility ([3]; 10% water/EtOH, 50 °C, thermodynamic from solid, 10% water/EtOH, sample ID A22, read-out: Solubility assessment 20 vol.): 50 to 100 mg/mL
solubility ([3]; 10% water/IPA, 50 °C, thermodynamic from solid, 10% water/IPA, sample ID A23, read-out: Solubility assessment 10 vol.): < 100 mg/mL
solubility ([3]; 10% water/IPA, 50 °C, thermodynamic from solid, 10% water/IPA, sample ID A23, read-out: Solubility assessment 20 vol.): < 50 mg/mL
solubility ([3]; 10% water/IPA, 50 °C, thermodynamic from solid, 10% water/IPA, sample ID A23, read-out: Solubility assessment 40 vol.): 16.7 to 25 mg/mL
solubility ([3]; 10% water/IPA, 50 °C, thermodynamic from solid, 10% water/IPA, sample ID A23, read-out: Solubility assessment 60 vol.): 16.7 to 25 mg/mL
solubility ([3]; 10% water/THF, 50 °C, thermodynamic from solid, 10% water/THF, sample ID A24, read-out: Solubility assessment 10 vol.): < 100 mg/mL
solubility ([3]; 10% water/THF, 50 °C, thermodynamic from solid, 10% water/THF, sample ID A24, read-out: Solubility assessment 20 vol.): < 50 mg/mL
solubility ([3]; 10% water/THF, 50 °C, thermodynamic from solid, 10% water/THF, sample ID A24, read-out: Solubility assessment 40 vol.): 16.7 to 25 mg/mL
solubility ([3]; 10% water/THF, 50 °C, thermodynamic from solid, 10% water/THF, sample ID A24, read-out: Solubility assessment 60 vol.): 16.7 to 25 mg/mL
solubility ([3]; MEK, 50 °C, thermodynamic from solid, MEK, sample ID A7, read-out: Solubility assessment 10 vol.): < 100 mg/mL
solubility ([3]; MEK, 50 °C, thermodynamic from solid, MEK, sample ID A7, read-out: Solubility assessment 20 vol.): < 50 mg/mL
solubility ([3]; MEK, 50 °C, thermodynamic from solid, MEK, sample ID A7, read-out: Solubility assessment 40 vol.): < 25 mg/mL
solubility ([3]; MEK, thermodynamic from solid, MEK, sample ID A7, read-out: Solubility assessment 60 vol.): < 16.7 mg/mL
solubility ([3]; MIBK, 50 °C, thermodynamic from solid, MIBK, sample ID A5, read-out: Solubility assessment 10 vol.): < 100 mg/mL
solubility ([3]; MIBK, 50 °C, thermodynamic from solid, MIBK, sample ID A5, read-out: Solubility assessment 20 vol.): < 50 mg/mL
solubility ([3]; MIBK, 50 °C, thermodynamic from solid, MIBK, sample ID A5, read-out: Solubility assessment 40 vol.): < 25 mg/mL
solubility ([3]; MIBK, thermodynamic from solid, MIBK, sample ID A5, read-out: Solubility assessment 60 vol.): < 16.7 mg/mL
solubility ([3]; TBME, 50 °C, thermodynamic from solid, TBME, sample ID A13, read-out: Solubility assessment 10 vol.): < 100 mg/mL
solubility ([3]; TBME, 50 °C, thermodynamic from solid, TBME, sample ID A13, read-out: Solubility assessment 20 vol.): < 50 mg/mL
solubility ([3]; TBME, 50 °C, thermodynamic from solid, TBME, sample ID A13, read-out: Solubility assessment 40 vol.): < 25 mg/mL
solubility ([3]; TBME, thermodynamic from solid, TBME, sample ID A13, read-out: Solubility assessment 60 vol.): < 16.7 mg/mL
solubility ([3]; acetone, 50 °C, thermodynamic from solid, Acetone, sample ID A9, read-out: Solubility assessment 10 vol.): < 100 mg/mL
solubility ([3]; acetone, 50 °C, thermodynamic from solid, Acetone, sample ID A9, read-out: Solubility assessment 20 vol.): < 50 mg/mL
solubility ([3]; acetone, 50 °C, thermodynamic from solid, Acetone, sample ID A9, read-out: Solubility assessment 40 vol.): < 25 mg/mL
solubility ([3]; acetone, 50 °C, thermodynamic from solid, Acetone, sample ID A9, read-out: Solubility assessment 60 vol.): < 16.7 mg/mL
